# Tested on: S aureus A798
# Assay: Minimal inhibitory concentration (MIC), microdilution method in cation-adjusted Mueller-Hinton Broth following NCCLS guidelines
# Format: cell-based
# Conditions: pH of test medium 7.2-7.3
# Method: These assays have been performed following the description given in “Methods for dilution Antimicrobial Susceptibility Tests for Bacteria that Grow Aerobically, 4th ed.; Approved standard: NCCLS Document M7-A4; National Committee for Clinical Laboratory Standards Villanova, Pa., USA, 1997”. Minimal inhibitory concentrations (MICs; mg/l) were determined in cation-adjusted Mueller-Hinton Broth by a microdilution method following NCCLS guidelines (National Committee for Clinical Laboratory Standards. Methods for Dilution Antimicrobial Susceptibility). The pH of the test medium was 7.2-7.3. All Example compounds were tested against several Gram positive and Gram negative bacteria.
row,Compound,MIC
1,"COc1ccc2nccc(N3CCC(CNC(=O)[C@@H]4CN(c5ccc6c(c5)OCCO6)C(=O)O4)C3)c2n1 (mixture of isomers) [Example 81, (S)-3-(2,3-Dihydro-benzo[1,4]dioxin-6-yl)-2-oxo-oxazolidine-5-carboxylic acid [(RS)-1-(6-methoxy-[1,5]naphthyridin-4-yl)-pyrrolidin-3-ylmethyl]-amide]",0.125 µg/mL
2,"COc1ccc2nccc(N3CCC(CNC(=O)[C@@H]4CN(c5ccc(C)c(F)c5)C(=O)O4)C3)c2n1 (mixture of isomers) [Example 82, (S)-3-(3-Fluoro-4-methyl-phenyl)-2-oxo-oxazolidine-5-carboxylic acid [(RS)-1-(6-methoxy-[1,5]naphthyridin-4-yl)-pyrrolidin-3-ylmethyl]-amide]",≤ 0.031 µg/mL
3,"COc1ccc2nccc(N3CCC(C(=O)NC[C@@H]4CN(c5ccc(C)c(F)c5)C(=O)O4)C3)c2n1 (mixture of isomers) [Example 84, (RS)-1-(6-Methoxy-[1,5]naphthyridin-4-yl)-pyrrolidine-3-carboxylic acid [(R)-3-(3-fluoro-4-methyl-phenyl)-2-oxo-oxazolidin-5-ylmethyl]-amide]",≤ 0.031 µg/mL
4,"COc1ccc2nccc(N3CCC(C(=O)NC[C@@H]4CN(c5ccc6c(c5)OCCO6)C(=O)O4)C3)c2n1 (mixture of isomers) [Example 85, (RS)-1-(6-Methoxy-[1,5]naphthyridin-4-yl)-pyrrolidine-3-carboxylic acid [(R)-3-(2,3-dihydro-benzo[1,4]dioxin-6-yl)-2-oxo-oxazolidin-5-ylmethyl]-amide]",0.25 µg/mL
5,"COc1ccc2nccc(N3CC[C@@H]4CN(C[C@@H]5CN(c6ccc7c(c6)OCCO7)C(=O)O5)C[C@@H]43)c2n1 (mixture of isomers) [Example 90, (R)-3-(2,3-Dihydro-benzo[1,4]dioxin-6-yl)-5-{[(3aR*,6aR*)-1-(6-methoxy-[1,5]naphthyridin-4-yl)-hexahydro-pyrrolo[3,4-b]pyrrol-5-yl]-methyl}-oxazolidin-2-one]",4 µg/mL
6,"COc1ccc2nccc(N3CC[C@@H]4CN(C(=O)[C@@H]5CN(c6ccc7c(c6)OCCO7)C(=O)O5)C[C@@H]43)c2n1 (mixture of isomers) [Example 92, (S)-3-(2,3-Dihydro-benzo[1,4]dioxin-6-yl)-5-[(3aR*,6aR*)-1-(6-methoxy-[1,5]naphthyridin-4-yl)-hexahydro-pyrrolo[3,4-b]pyrrole-5-carbonyl]-oxazolidin-2-one]",0.25 µg/mL
7,"COc1ccc2nccc(N3C[C@H]4CCN(C[C@@H]5CN(c6ccc7c(c6)OCCO7)C(=O)O5)[C@H]4C3)c2n1 (mixture of isomers) [Example 94, (R)-3-(2,3-Dihydro-benzo[1,4]dioxin-6-yl)-5-{[(3aR*,6aR*)-5-(6-methoxy-[1,5]naphthyridin-4-yl)-hexahydro-pyrrolo[3,4-b]pyrrol-1-yl]-methyl}-oxazolidin-2-one]",2 µg/mL
8,"COc1ccc2nccc(N3C[C@H]4CCN(C(=O)[C@@H]5CN(c6ccc7c(c6)OCCO7)C(=O)O5)[C@H]4C3)c2n1 (mixture of isomers) [Example 95, (S)-3-(2,3-Dihydro-benzo[1,4]dioxin-6-yl)-5-[(3aR*,6aR*)-5-(6-methoxy-[1,5]naphthyridin-4-yl)-hexahydro-pyrrolo[3,4-b]pyrrole-1-carbonyl]-oxazolidin-2-one]",0.125 µg/mL
9,"COc1ccc2nccc(N3CCCC(NC[C@@H]4CN(c5ccc6c(c5)OCCO6)C(=O)O4)C3)c2n1 (mixture of isomers) [Example 102, (R)-3-(2,3-Dihydro-benzo[1,4]dioxin-6-yl)-5-{[(RS)-1-(6-methoxy-[1,5]naphthyridin-4-yl)-piperidin-3-ylamino]-methyl}-oxazolidin-2-one]",4 µg/mL
10,"COc1ccc2nccc(C3(O)CCN(CC4CN(c5ccc6c(c5)OCCO6)C(=O)O4)CC3)c2n1 (racemic) [Example 3, (RS)-3-(2,3-Dihydro-benzo[1,4]dioxin-6-yl)-5-[4-hydroxy-4-(6-methoxy-[1,5]naphthyridin-4-yl)-piperidin-1-ylmethyl]-oxazolidin-2-one]",≤ 0.031 µg/mL
11,"COc1ccc2ncnc(N3CCC(O)(CC4CN(c5ccc6c(c5)OCCO6)C(=O)O4)CC3)c2c1 (racemic) [Example 4, (RS)-3-(2,3-Dihydro-benzo[1,4]dioxin-6-yl)-5-[4-hydroxy-1-(6-methoxy-quinazolin-4-yl)-piperidin-4-ylmethyl]-oxazolidin-2-one]",≤ 0.031 µg/mL
12,"COc1ccc2nccc(N3CCC(O)(CC4CN(c5ccc6c(c5)OCCO6)C(=O)O4)CC3)c2n1 (racemic) [Example 5, (RS)-3-(2,3-Dihydro-benzo[1,4]dioxin-6-yl)-5-[4-hydroxy-1-(6-methoxy-[1,5]naphthyridin-4-yl)-piperidin-4-ylmethyl]-oxazolidin-2-one]",≤ 0.031 µg/mL
13,"COc1ccc2ncnc(N3CCN(CC4CN(c5ccc6c(c5)OCCO6)C(=O)O4)CC3)c2c1 (racemic) [Example 6, (RS)-3-(2,3-Dihydro-benzo[1,4]dioxin-6-yl)-5-[4-(6-methoxy-quinazolin-4-yl)-piperazin-1-ylmethyl]-oxazolidin-2-one]",≤ 0.031 µg/mL
14,"COc1ccc2ncnc(N3CCN(CC4CN(c5ccc6c(c5)NC(=O)CS6)C(=O)O4)CC3)c2c1 (racemic) [Example 7, (RS)-6-{5-[4-(6-Methoxy-quinazolin-4-yl)-piperazin-1-ylmethyl]-2-oxo-oxazolidin-3-yl}-4H-benzo[1,4]thiazin-3-one]",≤ 0.031 µg/mL
15,"COc1ccc2nccc(N3CCN(CC4CN(c5ccc6c(c5)OCCO6)C(=O)O4)CC3)c2n1 (racemic) [Example 8, (RS)-3-(2,3-Dihydro-benzo[1,4]dioxin-6-yl)-5-[4-(6-methoxy-[1,5]naphthyridin-4-yl)-piperazin-1-ylmethyl]-oxazolidin-2-one]",≤ 0.031 µg/mL
16,"COc1ccc2nccc(N3CCN(CC4CN(c5ccc(C)cn5)C(=O)O4)CC3)c2n1 (racemic) [Example 43, (RS)-5-[4-(6-Methoxy-[1,5]naphthyridin-4-yl)-piperazin-1-ylmethyl]-3-(5-methyl-pyridin-2-yl)-oxazolidin-2-one]",1 µg/mL
17,"COc1ccc2nccc(N3CCN(CC4CN(c5ccc(C(F)(F)F)cn5)C(=O)O4)CC3)c2n1 (racemic) [Example 44, (RS)-5-[4-(6-Methoxy-[1,5]naphthyridin-4-yl)-piperazin-1-ylmethyl]-3-(5-trifluoromethyl-pyridin-2-yl)-oxazolidin-2-one]",0.5 µg/mL
18,"COc1ccc2nccc(N3CCN(CC4CN(c5cc6c(nn5)OCCO6)C(=O)O4)CC3)c2n1 (racemic) [Example 110, (RS)-3-(6,7-Dihydro-[1,4]dioxino[2,3-c]pyridazin-3-yl)-5-[4-(6-methoxy-[1,5]naphthyridin-4-yl)-piperazin-1-ylmethyl]-oxazolidin-2-one]",8 µg/mL

# The remaining lines, values ahead:
row,MIC,Compound
1,≤ 0.031 µg/mL,"COc1ccc2nccc(N3CCC(CNC[C@@H]4CN(c5ccc6c(c5)NC(=O)CS6)C(=O)O4)C3)c2n1 (mixture of isomers) [Example 80, 6-[(R)-5-({[(RS)-1-(6-Methoxy-[1,5]naphthyridin-4-yl)-pyrrolidin-3-ylmethyl]-amino}-methyl)-2-oxo-oxazolidin-3-yl]-4H-benzo[1,4]thiazin-3-one]"
2,0.25 µg/mL,"COc1ccc2nccc(N3C[C@@H](CNC[C@@H]4CN(c5ccc6c(c5)NC(=O)CS6)C(=O)O4)[C@@H](O)C3)c2n1 (mixture of isomers) [Example 83, 6-[(R)-5-({[(3RS)-(4RS)-4-Hydroxy-1-(6-methoxy-[1,5]naphthyridin-4-yl)-pyrrolidin-3-ylmethyl]-amino}-methyl)-2-oxo-oxazolidin-3-yl]-4H-benzo[1,4]thiazin-3-one]"
3,≤ 0.031 µg/mL,"COc1ccc2nccc(N3CC[C@H](NCCC4CN(c5ccc6c(c5)NC(=O)CS6)C(=O)O4)C3)c2n1 (mixture of isomers) [Example 86, 6-((RS)-5-{2-[(S)-1-(6-Methoxy-[1,5]naphthyridin-4-yl)-pyrrolidin-3-ylamino]-ethyl}-2-oxo-oxazolidin-3-yl)-4H-benzo[1,4]thiazin-3-one]"
4,≤ 0.031 µg/mL,"COc1ccc2nccc(N3CC[C@@H](NCCC4CN(c5ccc6c(c5)NC(=O)CS6)C(=O)O4)C3)c2n1 (mixture of isomers) [Example 87, 6-((RS)-5-{2-[(R)-1-(6-Methoxy-[1,5]naphthyridin-4-yl)-pyrrolidin-3-ylamino]-ethyl}-2-oxo-oxazolidin-3-yl)-4H-benzo[1,4]thiazin-3-one]"
5,≤ 0.031 µg/mL,"COc1ccc2nccc(N3C[C@H]4CCN(C[C@@H]5CN(c6ccc7c(c6)NC(=O)CS7)C(=O)O5)[C@H]4C3)c2n1 (mixture of isomers) [Example 93, 6-{(R)-5-{[(3aR*,6aR*)-5-(6-Methoxy-[1,5]naphthyridin-4-yl)-hexahydro-pyrrolo[3,4-b]pyrrol-1-yl]-methyl}-2-oxo-oxazolidin-3-yl}-4H-benzo[1,4]thiazin-3-one]"
6,≤ 0.031 µg/mL,"COc1ccc2nccc(N3CCC(CN(C)C[C@@H]4CN(c5ccc6c(c5)NC(=O)CS6)C(=O)O4)C3)c2n1 (mixture of isomers) [Example 117, 6-[(R)-5-({[(RS)-1-(6-Methoxy-[1,5]naphthyridin-4-yl)-pyrrolidin-3-ylmethyl]-methyl-amino}-methyl)-2-oxo-oxazolidin-3-yl]-4H-benzo[1,4]thiazin-3-one]"
7,0.063 µg/mL,"COc1ccc2nccc(N3CCC(O)(CNC[C@@H]4CN(c5ccc6c(c5)NC(=O)CS6)C(=O)O4)C3)c2n1 (mixture of isomers) [Example 129, 6-[(R)-5-({[(RS)-3-Hydroxy-1-(6-methoxy-[1,5]naphthyridin-4-yl)-pyrrolidin-3-ylmethyl]-amino}-methyl)-2-oxo-oxazolidin-3-yl]-4H-benzo[1,4]thiazin-3-one]"
8,≤ 0.031 µg/mL,"COc1ccc2nccc(N3CC(NCCC4CN(c5ccc6c(c5)NC(=O)CS6)C(=O)O4)C3)c2n1 (racemic) [Example 58, (RS)-6-(5-{2-[1-(6-Methoxy-[1,5]naphthyridin-4-yl)-azetidin-3-ylamino]-ethyl}-2-oxo-oxazolidin-3-yl)-4H-benzo[1,4]thiazin-3-one]"

# — patent US8217029B2, “Oxazolidinone antibiotics” (Actelion Pharmaceuticals Ltd, priority 2007, dated 2012)
